# Measured values published in article PMC10746280, “Bacterial efflux pump modulators prevent bacterial growth in macrophages and under broth conditions that mimic the host environment” (mBio, 2023).
# Assays:
# [1] = test system: S. Typhimurium SL1344 (sifB::gfp) in RAW 264.7 macrophages; test: SAFIRE macrophage assay: intracellular bacterial load (GFP signal within macrophages); format: cell-based, Salmonella enterica serotype Typhimurium; conditions: 'Toxic' given instead of a score
# Excerpt: (§1) In SAFIRE, we used MATLAB software to count the number of macrophages that remain adherent and retain the red fluorescence of MitoTracker, an indicator of voltage across the mitochondrial inner membrane. MATLAB then calculates the signal from bacteria (green fluorescent protein [GFP]) that overlaps with macrophages, as defined by MitoTracker, to estimate bacterial load. […] For example, we observed that the 6-trifluoropyrimidin-2-yl group on the right-hand side of EPM35 is apparently toxic to macrophages. Non-toxic analogs that reduced bacterial load by at least 60% at 5 µM and 25 µM in SAFIRE, as compared with DMSO, progressed and were evaluated in SAFIRE across eight or more concentrations, ranging from 0.001 µM to 50 µM (n = 2). […] Each of the top 13 analogs had at least an eightfold increase in potency and were not toxic for macrophages at 50 µM in the SAFIRE assay (Fig. 1C).
# (§2) As previously described ([18]), RAW 264.7 macrophages (between passages 1 and 6) were grown in complete Dulbecco’s modified Eagle’s medium (DMEM) to approximately 70% to 90% confluence, scraped, washed, resuspended, diluted to 5 × 10^4 in 100 µL, and seeded in black, 96-well, glass-bottomed plates (Brooks Life Sciences catalog number MGB096-1-2-LG-L) at 37°C with 5% CO2. Twenty-four hours later, bacteria grown overnight in LB were diluted into 50 µL phosphate buffered saline (PBS) and added to a final concentration of 1 × 10^7 S. Typhimurium SL1344 (sifB::gfp) per milliliter ([78]) for an approximate multiplicity of infection of 30 bacteria per macrophage cell. Forty-five minutes after bacterial addition, gentamicin (Sigma catalog number G1264) was added to a final concentration of 40 µg/mL to inhibit the growth of remaining extracellular bacteria. Two hours after infection, gentamicin-containing medium was removed and replaced with 200 µL fresh DMEM with compound or DMSO (Sigma catalog number 276855) to the stated final concentrations. At 17.5 h after infection, PBS containing MitoTracker Red CMXRos (Life Technologies catalog number M7512), a vital dye for mitochondrial electric potential, was added to a final concentration of 100 nM. At 18 h after infection, 16% paraformaldehyde was added to a final concentration of 4% and incubated at room temperature for 15 min. Cells were washed twice with PBS and stained for 20 min with 1 µM 4′,6-diamidino-2-phenylindole (DAPI), a vital dye for double-stranded DNA, and stored in 90% glycerol in PBS until imaging. Samples were imaged in six fields of view per well using a semiautomated Yokogawa CellVoyager CV1000 confocal scanner system with a 20×, 0.75-numerical aperture (NA) objective. A MATLAB algorithm calculated bacterial accumulation (GFP fluorescence) within macrophages, as defined by DAPI and MitoTracker Red. GFP^+ macrophage area was defined as the number of GFP-positive pixels per macrophage divided by the total number of pixels per macrophage, averaged across all macrophages in the field ([34]).
# RAW 264.7 macrophages = test: SAFIRE macrophage assay: host toxicity (adherent macrophage count, morphology); format: cell-based
# Excerpt: as §1, §2
Structure (SMILES),5 uM Avg Antibacterial Score [1],25 uM Avg Antibacterial Score [1],5 uM Avg Cell # Score (RAW 264.7 macrophages),25 uM Avg Cell # Score (RAW 264.7 macrophages)
NC(=O)[C@H]1CC[C@@H](NCC(O)COc2ccc(Cl)c(Cl)c2)C1 (some centres unmarked) [CU066],103,100,91,86
NC(=O)N1CCN(CC(O)COc2ccc(Cl)c(Cl)c2)CC1 (centres unmarked) [CU067],104,101,79,88
O=C(NC1CCN(CC(O)COc2ccc(Cl)c(Cl)c2)C1)c1ccccc1 (centres unmarked) [CU068],20,Toxic,80,49
CC(C)C(=O)NC1CCN(CC(O)COc2ccc(Cl)c(Cl)c2)C1 (centres unmarked) [CU069],95,52,96,94
OC(CNCCNc1nccc(C(F)(F)F)n1)COc1ccc(Cl)c(Cl)c1 (centres unmarked) [CU070],Toxic,Toxic,49,65
CC(=O)N(CCNc1nccc(C(F)(F)F)n1)CC(O)COc1ccc(Cl)c(Cl)c1 (centres unmarked) [CU071],85,Toxic,62,56
CC(C)N(CCNc1nccc(C(F)(F)F)n1)CC(O)COc1ccc(Cl)c(Cl)c1 (centres unmarked) [CU072],Toxic,Toxic,62,94
O=C(O)C1CCN(CC(O)COc2ccc(Cl)c(Cl)c2)CC1 (centres unmarked) [CU073],102,101,100,140
CCc1ccc(OCC(O)CN2CCC(Nc3nccc(C(F)(F)F)n3)CC2)cc1 (centres unmarked) [CU074],10,Toxic,71,114
COC(=O)c1ccc(OCC(O)CN2CCC(Nc3nccc(C(F)(F)F)n3)CC2)cc1 (centres unmarked) [CU075],68,Toxic,86,56
CC(=O)Nc1ccc(OCC(O)CN2CCC(Nc3nccc(C(F)(F)F)n3)CC2)cc1 (centres unmarked) [CU076],102,103,79,86
OC(COc1ccc(-c2ccccc2)cc1)CN1CCC(Nc2nccc(C(F)(F)F)n2)CC1 (centres unmarked) [CU077],11,Toxic,35,114
OC(COc1ccc2ccccc2c1)CN1CCC(Nc2nccc(C(F)(F)F)n2)CC1 (centres unmarked) [CU078],7.5,Toxic,87,133
OC(COc1cccc2ccccc12)CN1CCC(Nc2nccc(C(F)(F)F)n2)CC1 (centres unmarked) [CU079],6.41,Toxic,86,89
OC(COc1ccc2c(c1)OCO2)CN1CCC(Nc2nccc(C(F)(F)F)n2)CC1 (centres unmarked) [CU080],96,7.4,86,91
COc1cccc(OCC(O)CN2CCC(Nc3nccc(C(F)(F)F)n3)CC2)c1 (centres unmarked) [CU081],102,17,94,93

Structure (SMILES),5 uM Avg Antibacterial Score [1],25 uM Avg Antibacterial Score [1],5 uM Avg Cell # Score (RAW 264.7 macrophages),25 uM Avg Cell # Score (RAW 264.7 macrophages)
N#Cc1cccc(OCC(O)CN2CCC(Nc3nccc(C(F)(F)F)n3)CC2)c1 (centres unmarked) [CU082],100,19,89,85
OC(COc1ccccc1)CN1CCC(Nc2nccc(C(F)(F)F)n2)C1 (centres unmarked) [CU083],100,32,89,95
OC(COc1ccccc1Cl)CN1CCC(Nc2nccc(C(F)(F)F)n2)C1 (centres unmarked) [CU084],93,Toxic,96,46
OC(COc1cccc(Cl)c1)CN1CCC(Nc2nccc(C(F)(F)F)n2)C1 (centres unmarked) [CU085],47,Toxic,92,33
OC(COc1ccc(Cl)cc1)CN1CCC(Nc2nccc(C(F)(F)F)n2)C1 (centres unmarked) [CU086],71,Toxic,89,27
OC(COc1ccc(Cl)cc1Cl)CN1CCC(Nc2nccc(C(F)(F)F)n2)C1 (centres unmarked) [CU087],36,Toxic,98,78
OC(COc1cc(Cl)cc(Cl)c1)CN1CCC(Nc2nccc(C(F)(F)F)n2)C1 (centres unmarked) [CU088],22,Toxic,101,98
OC(COc1ccc(Cl)c(Cl)c1)CN1CCC(Nc2nccc(C(F)(F)F)n2)C1 (centres unmarked) [CU089],30,Toxic,101,91
CCOC(=O)c1cccc(OCC(O)CN2CCC(Nc3nccc(C(F)(F)F)n3)C2)c1 (centres unmarked) [CU090],70,Toxic,91,48
COC(=O)c1ccc(OCC(O)CN2CCC(Nc3nccc(C(F)(F)F)n3)C2)cc1 (centres unmarked) [CU091],97,9.52,89,95
OC(COc1cccc(C(F)(F)F)c1)CN1CCC(Nc2nccc(C(F)(F)F)n2)C1 (centres unmarked) [CU092],41,Toxic,86,72
N#Cc1ccccc1OCC(O)CN1CCC(Nc2nccc(C(F)(F)F)n2)C1 (centres unmarked) [CU093],102,58,93,79
N#Cc1ccc(OCC(O)CN2CCC(Nc3nccc(C(F)(F)F)n3)C2)cc1 (centres unmarked) [CU094],105,41,91,71
COc1ccccc1OCC(O)CN1CCC(Nc2nccc(C(F)(F)F)n2)C1 (centres unmarked) [CU095],100,43,88,83
COc1ccc(OCC(O)CN2CCC(Nc3nccc(C(F)(F)F)n3)C2)cc1 (centres unmarked) [CU096],103,29,74,92
OC(COc1ccc(F)cc1)CN1CCC(Nc2nccc(C(F)(F)F)n2)C1 (centres unmarked) [CU097],100,6.44,95,95
